The test addresses T1, hGIP-R (Homo sapiens, UniProt P48546).
T1 construct: expressed in transfected cells; host or cells: HEK-293 clonal cell lines
T1 sequence (P48546 22-466): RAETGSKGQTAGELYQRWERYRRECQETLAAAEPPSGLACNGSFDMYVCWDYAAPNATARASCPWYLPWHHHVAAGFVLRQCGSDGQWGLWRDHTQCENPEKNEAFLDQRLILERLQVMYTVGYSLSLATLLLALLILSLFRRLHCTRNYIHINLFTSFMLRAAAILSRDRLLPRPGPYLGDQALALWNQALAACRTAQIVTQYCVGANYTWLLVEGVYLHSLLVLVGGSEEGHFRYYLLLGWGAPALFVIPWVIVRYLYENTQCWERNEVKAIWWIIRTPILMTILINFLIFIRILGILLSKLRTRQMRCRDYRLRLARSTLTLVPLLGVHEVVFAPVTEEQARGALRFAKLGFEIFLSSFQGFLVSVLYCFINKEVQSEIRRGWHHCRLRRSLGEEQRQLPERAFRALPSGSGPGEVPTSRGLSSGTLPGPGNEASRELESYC
In words: Functional hGIP-R Assay (cAMP formation, HTRF). Type of test: cell-based. The conditions noted are these: for Emax: cAMP efficacy, percent of maximal response to GIP(1-42)OH, 37° C., 0.1% bovine casein, arithmetic mean ± SEM; for EC50: cAMP potency, HEK-293 cells expressing hGIP-R, incubated at 37° C. in the presence of 0.1% bovine casein, geometric mean, read-out: Human GIP-R EC50, nM (SEM, n). The method in brief: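 HEK-293 cells expressing hGIP-R were given a 20-point compound series in DMEM with 0.1% casein, 250 μM IBMX, 1% DMSO, 30 min at 37 °C. cAMP was read by HTRF against a standard curve, expressed as % of human GIP (1-42) OH maximum; EC50 and Emax came from four-parameter fits.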
(In general: cAMP levels reflect the balance of adenylyl cyclase and phosphodiesterase activity.)

One may read the Emax as the size of the effect at its maximum, as opposed to the concentration needed. One may read the EC50 as the concentration that produces a half-maximal response. In the case of `Cc1cn2cc(-c3ccc([C@H]4C[C@@]45CCN([C@H](Cc4cnn(C(F)F)c4)C(=O)NC(C)(C)Cn4nc(C(F)(F)F)cc4-c4cc(F)c(=O)n(C)c4)C5=O)c(C)c3)cnc2n1` [Example 144, (R)-3-(1-(Difluoromethyl)-1H-pyrazol-4-yl)-N-(1-(5-(5-fluoro-1-methyl-6-oxo-1,6-dihydropyridin-3-yl)-3-(trifluoromethyl)-1H-pyrazol-1-yl)-2-methylpropan-2-yl)-2-((1R,3R)-1-(2-methyl-4-(2-methylimidazo[1,2-a]pyrimidin-6-yl)phenyl)-4-oxo-5-azaspiro[2.4]heptan-5-yl)propanamide], the Emax turned out to be 63.3 ± 2.24% and the EC50 is 0.755 nM.

With `Cc1nc(-c2cnc3nc(C4CC4)cn3c2)ccc1[C@H]1C[C@@]12CCN([C@H](Cc1cnn(C(F)F)c1)C(=O)NC(C)(C)Cn1nc(C(F)(F)F)cc1-c1ccn(C3CC3)c(=O)c1)C2=O` [Example 145, (R)—N-(1-(5-(1-Cyclopropyl-2-oxo-1,2-dihydropyridin-4-yl)-3-(trifluoromethyl)-1H-pyrazol-1-yl)-2-methylpropan-2-yl)-2-((1R,3R)-1-(6-(2-cyclopropylimidazo[1,2-a]pyrimidin-6-yl)-2-methylpyridin-3-yl)-4-oxo-5-azaspiro[2.4]heptan-5-yl)-3-(1-(difluoromethyl)-1H-pyrazol-4-yl)propanamide], the Emax amounted to 96.6 ± 2.37% and the EC50 was determined as 0.727 nM.

On to `Cc1ncc(-c2cc(C(F)(F)F)nn2CC(C)(C)NC(=O)[C@@H](Cc2cnn(C(F)F)c2)NC(=O)[C@H]2C[C@@H]2c2ccc(-c3cnc4nn(C)cc4c3)nc2C(F)(F)F)cn1` [Example 147, (1S,2S)-N—((R)-3-(1-(Difluoromethyl)-1H-pyrazol-4-yl)-1-((2-methyl-1-(5-(2-methylpyrimidin-5-yl)-3-(trifluoromethyl)-1H-pyrazol-1-yl)propan-2-yl)amino)-1-oxopropan-2-yl)-2-(6-(2-methyl-2H-pyrazolo[3,4-b]pyridin-5-yl)-2-(trifluoromethyl)pyridin-3-yl)cyclopropane-1-carboxamide], for which the Emax is 86.1 ± 9% and the concentration giving a half-maximal response (EC50) was 17.2 nM.

In the case of `Cc1cn2cc(-c3ccc([C@H]4C[C@@]45CCN([C@H](Cc4cnn(C(F)F)c4)C(=O)NC(C)(C)Cn4nc(C(F)(F)F)cc4-c4ccc(=O)[nH]n4)C5=O)c(Cl)c3)cnc2n1` [Example 148, (R)-2-((1S,3R)-1-(2-Chloro-4-(2-methylimidazo[1,2-a]pyrimidin-6-yl)phenyl)-4-oxo-5-azaspiro[2.4]heptan-5-yl)-3-(1-(difluoromethyl)-1H-pyrazol-4-yl)-N-(2-methyl-1-(5-(6-oxo-1,6-dihydropyridazin-3-yl)-3-(trifluoromethyl)-1H-pyrazol-1-yl)propan-2-yl)propanamide], the maximal response (Emax) is 74.4 ± 2.94% and the EC50 worked out at 1.13 nM.

For the compound `Cc1cn2cc(-c3ccc([C@H]4C[C@@]45CCN([C@H](Cc4cnn(C(F)F)c4)C(=O)NC(C)(C)Cn4nc(C(F)(F)F)cc4-c4ccc(=O)[nH]n4)C5=O)c(F)c3)cnc2n1` [Example 149, (R)-3-(1-(Difluoromethyl)-1H-pyrazol-4-yl)-2-((1S,3R)-1-(2-fluoro-4-(2-methylimidazo[1,2-a]pyrimidin-6-yl)phenyl)-4-oxo-5-azaspiro[2.4]heptan-5-yl)-N-(2-methyl-1-(5-(6-oxo-1,6-dihydropyridazin-3-yl)-3-(trifluoromethyl)-1H-pyrazol-1-yl)propan-2-yl)propanamide], the Emax was found to be 73.2 ± 2.43% and the EC50 was determined as 5.57 nM.

Take `Cc1cn2cc(-c3ccc([C@H]4C[C@@]45CCN([C@H](Cc4cnn(C(F)F)c4)C(=O)NC(C)(C)Cn4nc(C(F)(F)F)cc4-c4ccc(=O)n(COP(=O)(O)O)n4)C5=O)c(Cl)c3)cnc2n1` [Example 150, (3-(1-(2-((R)-2-((1S,3R)-1-(2-Chloro-4-(2-methylimidazo[1,2-a]pyrimidin-6-yl)phenyl)-4-oxo-5-azaspiro[2.4]heptan-5-yl)-3-(1-(difluoromethyl)-1H-pyrazol-4-yl)propanamido)-2-methylpropyl)-3-(trifluoromethyl)-1H-pyrazol-5-yl)-6-oxopyridazin-1 (6H)-yl)methyl dihydrogen phosphate]: the Emax was found to be 89.5 ± 6.21% and the EC50 turned out to be 2.06 nM.

For `Cc1cn2cc(-c3ccc([C@H]4C[C@@]45CCN([C@H](Cc4cnn(C(F)F)c4)C(=O)NC(C)(C)Cn4nc(C(F)(F)F)cc4-c4ccc(=O)n(COP(=O)(O)O)n4)C5=O)c(F)c3)cnc2n1` [Example 151, (3-(1-(2-((R)-3-(1-(Difluoromethyl)-1H-pyrazol-4-yl)-2-((1S,3R)-1-(2-fluoro-4-(2-methylimidazo[1,2-a]pyrimidin-6-yl)phenyl)-4-oxo-5-azaspiro[2.4]heptan-5-yl)propanamido)-2-methylpropyl)-3-(trifluoromethyl)-1H-pyrazol-5-yl)-6-oxopyridazin-1 (6H)-yl)methyl dihydrogen phosphate], the Emax is 106 ± 2.17% and the EC50 was determined as 16.9 nM.

Regarding `[2H]C([2H])([2H])n1cc(C[C@H](C(=O)NC(C)(C)Cn2nc(C(F)(F)F)cc2-c2cnc(C)nc2)N2CC[C@@]3(C[C@@H]3c3ccc(-c4cnc5nc(C)cn5c4)cc3Cl)C2=O)cn1` [Example 152, (R)-2-((1S,3R)-1-(2-Chloro-4-(2-methylimidazo[1,2-a]pyrimidin-6-yl)phenyl)-4-oxo-5-azaspiro[2.4]heptan-5-yl)-N-(2-methyl-1-(5-(2-methylpyrimidin-5-yl)-3-(trifluoromethyl)-1H-pyrazol-1-yl)propan-2-yl)-3-(1-(methyl-d3)-1H-pyrazol-4-yl)propanamide], the Emax was 87.2 ± 1.03% and the EC50 was 1.73 nM.

For the compound `Cn1cc(-c2ccc([C@H]3C[C@@]34CCN([C@H](Cc3cnn(C(F)F)c3)C(=O)NC(C)(C)Cn3nc(C(F)(F)F)cc3-c3cn[nH]n3)C4=O)c(Cl)c2)cnc1=O` [Example 154, (R)—N-(1-(5-(2H-1,2,3-Triazol-4-yl)-3-(trifluoromethyl)-1H-pyrazol-1-yl)-2-methylpropan-2-yl)-2-((1S,3R)-1-(2-chloro-4-(1-methyl-2-oxo-1,2-dihydropyrimidin-5-yl)phenyl)-4-oxo-5-azaspiro[2.4]heptan-5-yl)-3-(1-(difluoromethyl)-1H-pyrazol-4-yl)propanamide], the Emax came out at 74.2 ± 2.83% and the EC50 came out at 5.24 nM.

Take `Cn1cc(-c2cc(C(F)(F)F)nn2CC(C)(C)NC(=O)[C@@H](Cc2cnn(C(F)F)c2)NC(=O)[C@H]2C[C@@H]2c2nc3c(Cl)nn(C)c3cc2C#N)cc(F)c1=O` [Example 155, (1S,2S)-2-(3-Chloro-6-cyano-1-methyl-1H-pyrazolo[4,3-b]pyridin-5-yl)-N—((R)-3-(1-(difluoromethyl)-1H-pyrazol-4-yl)-1-((1-(5-(5-fluoro-1-methyl-6-oxo-1,6-dihydropyridin-3-yl)-3-(trifluoromethyl)-1H-pyrazol-1-yl)-2-methylpropan-2-yl)amino)-1-oxopropan-2-yl)cyclopropane-1-carboxamide]: the Emax stood at 78.1 ± 4.92% and the EC50 came out at 118 nM.

With `Cn1cc(-c2cc(C(F)(F)F)nn2CC(C)(C)NC(=O)[C@@H](Cc2cnn(C(F)F)c2)NC(=O)[C@H]2C[C@@H]2c2nc3cnn(C)c3cc2F)cc(F)c1=O` [Example 157, (1S,2S)-N-((R)-3-(1-(Difluoromethyl)-1H-pyrazol-4-yl)-1-((1-(5-(5-fluoro-1-methyl-6-oxo-1,6-dihydropyridin-3-yl)-3-(trifluoromethyl)-1H-pyrazol-1-yl)-2-methylpropan-2-yl)amino)-1-oxopropan-2-yl)-2-(6-fluoro-1-methyl-1H-pyrazolo[4,3-b]pyridin-5-yl)cyclopropane-1-carboxamide], the Emax amounted to 16.5 ± 0.234% and the half-maximal effective concentration (EC50) is 108 nM.

Consider `Cc1nc(-c2cnc3nc(C4CC4)cn3c2)ccc1[C@H]1C[C@@]12CCN([C@H](Cc1cnn(C(F)F)c1)C(=O)NC(C)(C)Cn1nc(C(F)(F)F)cc1-c1cnc(C(C)(C)O)nc1)C2=O` [Example 158, (R)-2-((1R,3R)-1-(6-(2-cyclopropylimidazo[1,2-a]pyrimidin-6-yl)-2-methylpyridin-3-yl)-4-oxo-5-azaspiro[2.4]heptan-5-yl)-3-(1-(difluoromethyl)-1H-pyrazol-4-yl)-N-(1-(5-(2-(2-hydroxypropan-2-yl)pyrimidin-5-yl)-3-(trifluoromethyl)-1H-pyrazol-1-yl)-2-methylpropan-2-yl)propanamide], for which the Emax came out at 102 ± 1.41% and the EC50 is 1.23 nM.

Take `Cc1nc(-c2cnc3nc(C4CC4)cn3c2)ccc1[C@H]1C[C@@]12CCN([C@H](Cc1cnn(C(F)F)c1)C(=O)NC(C)(C)Cn1nc(C(F)(F)F)cc1-c1ccc(C(C)(C)O)nc1)C2=O` [Example 159, (R)-2-((1R,3R)-1-(6-(2-Cyclopropylimidazo[1,2-a]pyrimidin-6-yl)-2-methylpyridin-3-yl)-4-oxo-5-azaspiro[2.4]heptan-5-yl)-3-(1-(difluoromethyl)-1H-pyrazol-4-yl)-N-(1-(5-(6-(2-hydroxypropan-2-yl)pyridin-3-yl)-3-(trifluoromethyl)-1H-pyrazol-1-yl)-2-methylpropan-2-yl)propanamide]: the maximal response (Emax) came to 95.3 ± 3.03% and the EC50 is 0.397 nM.

The record behind these values is patent US20260108546A1 (ELI LILLY AND COMPANY, priority 2024, published 2026).
